Drawing on PMC4770715, “LIM kinase inhibitors disrupt mitotic microtubule organization and impair tumor cell proliferation” (Oncotarget, 2015), this text covers remaining binding for two molecules.

Common to all, as to assay: biochemical
Design in all cases: KINOMEscan active-site competition binding, percent of control (100 = no competition)
Holding throughout (conditions): competition binding, percent control

The target in assay [1] is T1, IKK-beta (Homo sapiens, UniProt O14920).
T1 construct: gene IKBKB

For assay [2], the target named is PIK3C2B (Homo sapiens, UniProt O00750).
Assay [3] has as its target T2, TRKA (Homo sapiens, UniProt P04629).
T2 construct: gene NTRK1

Assay [4] addresses KIT(A829P) (Homo sapiens, UniProt P10721, A829P).
For assay [5], the target named is EGFR(G719C) (Homo sapiens, UniProt P00533, G719C).
For assay [6], the target named is FGFR1 (Homo sapiens, UniProt P11362).
The target of assay [7] is FLT3(R834Q) (Homo sapiens, UniProt P36888, R834Q).
In assay [8] the target is CHEK1 (Homo sapiens, UniProt O14757).
Chain of CHEK1 (O14757 whole entry): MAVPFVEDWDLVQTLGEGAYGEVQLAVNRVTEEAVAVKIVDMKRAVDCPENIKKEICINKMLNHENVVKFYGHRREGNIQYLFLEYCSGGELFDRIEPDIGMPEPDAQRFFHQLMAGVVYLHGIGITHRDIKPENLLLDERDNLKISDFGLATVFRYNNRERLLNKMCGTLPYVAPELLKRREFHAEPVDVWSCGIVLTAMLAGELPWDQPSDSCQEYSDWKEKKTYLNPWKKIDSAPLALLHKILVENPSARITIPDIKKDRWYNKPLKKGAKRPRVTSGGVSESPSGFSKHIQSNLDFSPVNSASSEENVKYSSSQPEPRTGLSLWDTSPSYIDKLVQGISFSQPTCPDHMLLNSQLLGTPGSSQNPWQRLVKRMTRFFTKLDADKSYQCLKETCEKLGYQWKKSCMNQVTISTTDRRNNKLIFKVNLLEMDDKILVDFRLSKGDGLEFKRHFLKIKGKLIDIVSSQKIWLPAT
Assay [9] concerns the target RET(M918T) (Homo sapiens, UniProt P07949, M918T).
The target in assay [10] is T3, DMPK2 (Homo sapiens, UniProt Q6DT37).
T3 construct: gene CDC42BPG

Assay [11] concerns the target T4, NDR2 (Homo sapiens, UniProt Q9Y2H1).
T4 construct: gene STK38L

In assay [12] the target is HCK (Homo sapiens, UniProt P08631).
The target in assay [13] is NEK2 (Homo sapiens, UniProt P51955).
Chain of NEK2 (P51955 whole entry): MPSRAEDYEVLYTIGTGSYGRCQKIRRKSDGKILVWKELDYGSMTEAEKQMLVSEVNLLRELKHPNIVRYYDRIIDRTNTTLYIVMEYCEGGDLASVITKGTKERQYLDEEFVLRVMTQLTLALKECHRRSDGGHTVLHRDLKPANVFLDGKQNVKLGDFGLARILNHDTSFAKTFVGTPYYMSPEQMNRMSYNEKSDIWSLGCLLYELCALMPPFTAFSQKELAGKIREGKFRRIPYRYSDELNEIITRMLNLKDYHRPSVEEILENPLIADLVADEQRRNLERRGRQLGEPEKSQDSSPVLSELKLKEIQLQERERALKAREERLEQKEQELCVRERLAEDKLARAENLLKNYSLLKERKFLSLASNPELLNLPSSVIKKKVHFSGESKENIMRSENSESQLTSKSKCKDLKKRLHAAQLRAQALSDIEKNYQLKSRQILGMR
For assay [14], the target named is BRAF(V600E) (Homo sapiens, UniProt P15056, V600E).
For assay [15], the target named is EPHA2 (Homo sapiens, UniProt P29317).
Chain of EPHA2 (P29317 whole entry): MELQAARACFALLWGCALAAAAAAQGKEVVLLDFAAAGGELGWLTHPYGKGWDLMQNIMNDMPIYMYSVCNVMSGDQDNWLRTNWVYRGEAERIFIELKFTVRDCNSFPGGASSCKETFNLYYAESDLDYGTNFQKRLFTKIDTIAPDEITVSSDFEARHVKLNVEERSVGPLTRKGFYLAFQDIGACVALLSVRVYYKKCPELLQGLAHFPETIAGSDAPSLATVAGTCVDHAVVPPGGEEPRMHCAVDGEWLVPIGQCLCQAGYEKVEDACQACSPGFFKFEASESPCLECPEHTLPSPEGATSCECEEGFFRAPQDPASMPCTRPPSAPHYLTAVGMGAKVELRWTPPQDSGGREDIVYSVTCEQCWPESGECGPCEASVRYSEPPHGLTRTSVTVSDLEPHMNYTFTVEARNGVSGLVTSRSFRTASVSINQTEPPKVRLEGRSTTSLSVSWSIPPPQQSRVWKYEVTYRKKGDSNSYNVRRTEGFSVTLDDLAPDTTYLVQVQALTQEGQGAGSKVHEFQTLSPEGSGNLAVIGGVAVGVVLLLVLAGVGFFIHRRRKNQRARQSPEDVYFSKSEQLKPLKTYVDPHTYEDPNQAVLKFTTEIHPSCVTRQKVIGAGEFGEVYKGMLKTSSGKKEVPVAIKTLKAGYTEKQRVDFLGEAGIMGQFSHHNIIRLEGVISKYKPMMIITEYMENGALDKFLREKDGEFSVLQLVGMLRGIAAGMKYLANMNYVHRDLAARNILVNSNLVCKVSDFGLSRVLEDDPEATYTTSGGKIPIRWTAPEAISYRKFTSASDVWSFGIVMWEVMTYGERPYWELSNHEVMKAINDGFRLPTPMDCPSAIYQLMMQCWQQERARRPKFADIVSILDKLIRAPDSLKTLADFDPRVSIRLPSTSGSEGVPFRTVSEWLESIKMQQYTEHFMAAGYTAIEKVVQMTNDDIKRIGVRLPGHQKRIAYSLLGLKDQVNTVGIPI
In assay [16] the target is DAPK3 (Homo sapiens, UniProt O43293).
Chain of DAPK3 (O43293 whole entry): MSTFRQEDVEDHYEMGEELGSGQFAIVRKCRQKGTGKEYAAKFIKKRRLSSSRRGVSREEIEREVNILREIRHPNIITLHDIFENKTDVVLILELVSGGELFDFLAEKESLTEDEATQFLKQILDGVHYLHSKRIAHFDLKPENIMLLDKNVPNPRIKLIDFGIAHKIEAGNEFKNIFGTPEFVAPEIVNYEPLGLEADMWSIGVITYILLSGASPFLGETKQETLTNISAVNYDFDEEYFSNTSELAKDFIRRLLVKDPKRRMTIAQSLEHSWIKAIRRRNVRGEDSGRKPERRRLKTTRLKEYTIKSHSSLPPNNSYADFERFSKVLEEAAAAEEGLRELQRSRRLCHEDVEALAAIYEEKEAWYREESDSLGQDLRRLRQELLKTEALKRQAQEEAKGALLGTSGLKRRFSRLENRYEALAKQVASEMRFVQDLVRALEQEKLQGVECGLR
Assay [17] has as its target CSF1R (Homo sapiens, UniProt P07333).
Assay [18] deals with STK36 (Homo sapiens, UniProt Q9NRP7).
Assay [19] deals with CSNK1A1L (Homo sapiens, UniProt Q8N752).
Chain of CSNK1A1L (Q8N752 whole entry): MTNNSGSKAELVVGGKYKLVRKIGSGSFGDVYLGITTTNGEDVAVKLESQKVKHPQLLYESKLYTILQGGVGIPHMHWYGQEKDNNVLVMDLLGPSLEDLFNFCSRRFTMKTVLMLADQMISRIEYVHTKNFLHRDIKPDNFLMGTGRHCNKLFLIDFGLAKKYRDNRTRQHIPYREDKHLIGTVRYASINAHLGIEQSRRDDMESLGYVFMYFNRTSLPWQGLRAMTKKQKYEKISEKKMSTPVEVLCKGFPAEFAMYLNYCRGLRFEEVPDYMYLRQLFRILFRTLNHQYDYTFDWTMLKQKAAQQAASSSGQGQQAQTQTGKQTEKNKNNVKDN
For assay [20], the target named is T5, YANK1 (Homo sapiens, UniProt Q8WU08).
T5 construct: gene STK32A
T5 sequence (Q8WU08 whole entry): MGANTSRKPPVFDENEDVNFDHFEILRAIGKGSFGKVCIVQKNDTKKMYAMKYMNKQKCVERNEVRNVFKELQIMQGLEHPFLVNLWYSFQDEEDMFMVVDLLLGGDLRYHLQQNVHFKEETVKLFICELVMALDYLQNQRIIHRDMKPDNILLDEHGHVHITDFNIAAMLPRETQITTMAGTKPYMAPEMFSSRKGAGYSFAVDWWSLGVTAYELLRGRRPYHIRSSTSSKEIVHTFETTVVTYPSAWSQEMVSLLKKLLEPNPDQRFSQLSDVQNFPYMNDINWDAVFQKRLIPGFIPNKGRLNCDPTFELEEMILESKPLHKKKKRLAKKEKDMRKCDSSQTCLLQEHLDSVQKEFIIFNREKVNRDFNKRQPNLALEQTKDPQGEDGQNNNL

Assay [21] has as its target T6, DCAMKL1 (Homo sapiens, UniProt O15075).
T6 construct: gene DCLK1

Assay [22] concerns the target T7, ABL1(F317L)-phosphorylated (Homo sapiens, UniProt P00519, F317L).
T7 construct: phosphorylated

T6 sequence (O15075 whole entry): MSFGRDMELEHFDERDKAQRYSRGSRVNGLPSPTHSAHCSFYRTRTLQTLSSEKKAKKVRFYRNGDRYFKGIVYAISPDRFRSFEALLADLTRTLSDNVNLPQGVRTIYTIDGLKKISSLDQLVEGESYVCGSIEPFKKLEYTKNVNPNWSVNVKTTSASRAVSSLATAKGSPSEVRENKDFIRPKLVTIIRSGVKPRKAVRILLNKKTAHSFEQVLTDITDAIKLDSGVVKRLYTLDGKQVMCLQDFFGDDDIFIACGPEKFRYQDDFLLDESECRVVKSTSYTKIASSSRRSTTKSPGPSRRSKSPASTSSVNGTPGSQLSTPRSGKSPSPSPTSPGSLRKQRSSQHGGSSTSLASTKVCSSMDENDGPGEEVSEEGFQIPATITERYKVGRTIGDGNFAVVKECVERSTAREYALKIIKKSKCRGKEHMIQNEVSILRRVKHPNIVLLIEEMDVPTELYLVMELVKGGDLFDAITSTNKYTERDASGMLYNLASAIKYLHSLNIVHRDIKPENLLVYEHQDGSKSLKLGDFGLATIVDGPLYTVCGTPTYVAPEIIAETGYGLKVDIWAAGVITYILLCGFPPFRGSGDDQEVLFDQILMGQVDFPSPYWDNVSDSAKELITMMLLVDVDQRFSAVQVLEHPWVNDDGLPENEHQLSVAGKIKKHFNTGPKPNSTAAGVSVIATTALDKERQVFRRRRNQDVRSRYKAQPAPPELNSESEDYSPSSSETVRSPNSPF
Chain of KIT(A829P) (P10721 whole entry A829P): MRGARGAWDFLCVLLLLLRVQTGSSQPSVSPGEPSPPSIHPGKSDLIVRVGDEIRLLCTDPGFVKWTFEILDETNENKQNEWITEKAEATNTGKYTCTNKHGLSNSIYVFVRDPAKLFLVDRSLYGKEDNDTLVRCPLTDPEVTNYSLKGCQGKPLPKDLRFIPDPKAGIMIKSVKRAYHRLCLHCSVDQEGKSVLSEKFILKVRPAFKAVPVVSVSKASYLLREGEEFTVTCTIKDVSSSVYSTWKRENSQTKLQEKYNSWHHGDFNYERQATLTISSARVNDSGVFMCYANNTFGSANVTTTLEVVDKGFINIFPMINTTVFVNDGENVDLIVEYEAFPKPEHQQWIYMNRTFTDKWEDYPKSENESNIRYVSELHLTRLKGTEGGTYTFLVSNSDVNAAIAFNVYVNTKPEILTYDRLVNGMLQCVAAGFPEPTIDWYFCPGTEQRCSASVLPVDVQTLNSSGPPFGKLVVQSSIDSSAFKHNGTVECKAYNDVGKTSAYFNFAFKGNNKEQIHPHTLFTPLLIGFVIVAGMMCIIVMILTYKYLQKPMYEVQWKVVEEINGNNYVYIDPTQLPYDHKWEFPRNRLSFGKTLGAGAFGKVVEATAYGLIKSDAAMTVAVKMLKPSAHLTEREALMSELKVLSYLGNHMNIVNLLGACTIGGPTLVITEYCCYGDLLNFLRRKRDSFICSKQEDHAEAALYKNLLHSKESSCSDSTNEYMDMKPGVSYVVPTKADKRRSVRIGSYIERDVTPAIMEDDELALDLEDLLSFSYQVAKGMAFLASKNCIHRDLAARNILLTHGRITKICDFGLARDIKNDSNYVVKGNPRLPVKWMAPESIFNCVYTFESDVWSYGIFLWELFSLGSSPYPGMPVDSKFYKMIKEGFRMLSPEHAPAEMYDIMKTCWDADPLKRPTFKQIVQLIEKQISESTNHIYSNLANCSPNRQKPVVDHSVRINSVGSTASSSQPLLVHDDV

Take `COc1ccc(-c2cnccc2-c2cnc(NC(=O)C(C)C)s2)c(C(F)(F)F)c1` [CRT0105446, N-{5-[3-(4-Methoxy-2-trifluoromethyl-phenyl)-pyridin-4-yl]-hiazol-2-yl}-isobutyramide]: the remaining binding at 10 µM in [1] was 88%; in assay [2] it was 100%; in [3], 70%; in assay [4], 100%; in [5], 89%; in assay [6] it was 98%. For the same molecule, the remaining binding at 10 µM came out at 88% in [7]; 100% in [8]; 91% in assay [9]; 93% in assay [10]; 82% in assay [11]; 100% in assay [12]. Besides, the remaining binding at 10 µM in assay [13] stood at 100%; in [14], 64%; in assay [15], 100%; in [16] it was 83%; in [17], 51%; in assay [18], 57%. In addition, the remaining binding at 10 µM in assay [19] was determined as 96%; in assay [20], 69%; in [21], 46%; in assay [22] it was 89%.

As for `Cc1ccc(-c2cnccc2-c2cnc(Nc3ccc(O)cc3)s2)c(Cl)c1` [CRT0105950, 4-{5-[3-(2-Chloro-4-methyl-phenyl)-pyridin-4-yl]-thiazol-2-ylamino}-phenol], the remaining binding at 10 µM in assay [1] is 88%; in assay [2], 100%; in assay [3] it was 1%; in assay [4], 35%; in [5], 71%; in assay [6], 5%. Besides, the remaining binding at 10 µM in assay [7] came out at 18%; in assay [8] it was 88%; in assay [9], 0.35%; in assay [10], 71%; in assay [11] it was 80%; in [12] it was 94%. Also, the remaining binding at 10 µM in [13] was found to be 82%; in assay [14], 83%; in assay [15], 70%; in assay [16], 44%; in [17], 1.2%; in assay [18], 17%. Besides, the remaining binding at 10 µM in assay [19] stood at 74%; in [20], 88%; in [21], 75%; in [22] it was 67%.
